For two compounds, IC50 results are on record in publication PMC8219539 (Journal of Atherosclerosis and Thrombosis, 2020).

The experiment deals with S1P receptor 2 (S1P2/EDG-5) (Homo sapiens, UniProt O95136). Briefly: Fura2 intracellular Ca2+ assay. The class given is cell-based.

Broadly, the IC50 is the concentration that inhibits the measured activity by half.

S1P receptor 2 (S1P2/EDG-5), sequence (O95136 whole entry): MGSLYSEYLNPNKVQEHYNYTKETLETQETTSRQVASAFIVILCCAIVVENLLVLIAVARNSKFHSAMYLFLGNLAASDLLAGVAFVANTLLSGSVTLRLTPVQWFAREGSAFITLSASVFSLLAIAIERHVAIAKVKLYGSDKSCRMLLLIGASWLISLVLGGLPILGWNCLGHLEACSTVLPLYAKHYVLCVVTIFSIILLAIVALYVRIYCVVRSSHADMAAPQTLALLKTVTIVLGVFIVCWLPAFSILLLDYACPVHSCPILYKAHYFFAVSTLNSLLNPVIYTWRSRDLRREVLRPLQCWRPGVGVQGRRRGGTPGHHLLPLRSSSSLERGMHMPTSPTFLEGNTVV

As for `Cc1nn(C)c2nc(NNC(=O)Nc3c(Cl)cncc3Cl)cc(C(C)C)c12` [JTE-013], the IC50 came to 5.3 nM.

In turn, ONO-5430514 had an IC50 of 5.7 nM.
